The source of these data is patent EP4810052A2, “HCRHR2 SELECTIVE POLYPEPTIDES” (Gubra A/S, priority 2023, dated 2026).

Experiment [1] is described as follows: Acute effects on hemodynamics in anesthetized pigs. The format is in vivo, Göttingen minipigs. The following applies: anesthetized minipigs, ascending doses. As to the method:
Göttingen minipigs were anesthetized and instrumented to continuous monitor hemodynamics during baseline measurement (0.5h), vehicle treatment (0.5h) and ascending doses of SEQ ID NO: 215 each 0.5 hours (10, 30, 100 and 300 µg/kg/min) and compared to a similar setup using Dobutamine (1, 3, 10 and 20 µg/kg/min) and vehicle (NaCl).

A short description of experiment [2]: Myocardial ischemia (LAD ligation) model in rats. The format is in vivo. The following applies: MI rats; for Heart rate / Mean blood pressure: anesthetized, prior to termination. From the text: Wistar male rats were obtained from JanVier (Janvier Labs, France) at 6 weeks of age. The animals were pair-housed. During the study, animals had free access to food (RM1, SDS Dietex) and drinking water ad libitum.
Myocardial infarction (MI) was induced by chronic left anterior descending coronary artery (LAD) ligation performed at day zero. Sham operated animals were subjected to the same protocol; after the left lateral thoracotomy exposing the heart, the rib cage was closed without passing the suture thread around LAD.
Treatments started at 1-month post-MI, in order to assess the potential beneficial effect of the candidate compound to prevent the progression of the pathology.
Rats underwent transthoracic echocardiographic (ECG) examination in order to assess cardiac morphology and function in a noninvasively way. Echocardiography was performed by using a digital ultrasound system (Vivid S60, GE Medical Systems) equipped with a 12 MHz phased-array and an 18 MHz linear-array transducer. Standard B-mode (Brightness-mode) and M-mode (Motion-mode) images of the heart were obtained in the two-dimensional (2D) parasternal long axis view (PSLA). LV parameters were measured and calculated as the mean of 3 consecutive cardiac cycles by a single blinded trained operator.
A total of four ECG exams were performed for all the animals. The first examination took place 5-7 days after surgery and was used as a control of the surgery. The second ECG was performed 1 month after LAD ligation. Based on the second ECG, MI rats included were randomized in […] homogeneous groups based on the left ventricular internal diameter in diastole (LVIDd), telediastolic (TeleD) volume, ejection fraction (EF) and fractional shortening (FS): Group 1 (Sham): n=10, group 2 (MI/Vehicle): n=19, group 3 (MI/Atenolol-Lisinopril-Spironolactone (A+L+S) 1-1-10 mg/kg): n=19, group 4 (MI/test peptide 30 nmol/kg): n=19 and group 5 (MI/test peptide 100 nmol/kg): n=19. Vehicle and test peptide were administrated daily SC and A+L+S were dosed through drinking water. The third and fourth ECG were done 2 and 3 months after surgery, and were used to assess the cardiac remodelling and function following MI. At the fourth ECG isovolumic relaxation time (IVRT) and cardiac output (CO) were also assessed by Doppler-echocardiography.
Prior to termination, hemodynamic measurements were performed under anaesthesia using a fluid-filled catheter (BLPR and TBM4m, World Precision Instrument). At termination, left soleus was dissected and weighed.
Statistical analyses were performed with the Graphpad 9 software. If values were normally distributed, a parametric analysis was performed. If samples were drawn from non-normal populations, a non-parametric analysis was performed. First, differences were assessed between Sham and MI/Vehicle using a t-test. Then, the treated MI groups were compared to MI/Vehicle using a one-way ANOVA followed by the appropriate post-hoc test.

Where [3] appears, read: 2 months of treatment, 30 nmol/kg, ± SEM.
Setting [4] is: 2 months of treatment, 100 nmol/kg, ± SEM.
Where [5] appears, read: 2 months of treatment, compared to MI/Vehicle.

The structures appear in SMILES notation. Starred links: 1 amine or outer side, 2 acyl side, 3 side chain; linkers in the order of their positions; H or OH if unused. Non-standard residues stand in square brackets, D forms with d. Residues, ends and D or L forms follow the SMILES beside them. Groups on a side chain read outwards from the residue. *: point of attachment. C20 diacid = O=C(O)CCCCCCCCCCCCCCCCCCC(=O)*; γGlu = O=C(O)[C@H](CCC(=O)[*:2])N[*:1]; NMeI = CC[C@H](C)[C@H](NC)C(=O)O; Nle = CCCC[C@H](N)C(=O)O; AEEA = NCCOCCOCC(=O)O; Aib = CC(C)(N)C(=O)O

Take `CCCC[C@H](NC(=O)[C@@H](NC(=O)[C@H](CCC(=O)O)NC(=O)C(C)(C)NC(=O)[C@H](CC(N)=O)NC(=O)[C@@H](NC(=O)[C@H](CCCCNC(=O)COCCOCCNC(=O)COCCOCCNC(=O)CC[C@H](NC(=O)CC[C@H](NC(=O)CCCCCCCCCCCCCCCCCCC(=O)O)C(=O)O)C(=O)O)NC(=O)[C@H](C)NC(=O)[C@H](CCC(N)=O)NC(=O)[C@H](CCC(=O)O)NC(=O)[C@H](CCCNC(=N)N)NC(=O)[C@H](C)NC(=O)[C@H](C)NC(=O)[C@H](CCCNC(=N)N)NC(=O)[C@H](C)NC(=O)[C@H](CCCNC(=N)N)NC(=O)[C@H](C)NC(=O)[C@H](CCC(N)=O)NC(=O)[C@H](CO)NC(=O)[C@H](CC(C)C)NC(=O)[C@H](CC(C)C)NC(=O)[C@@H](NC(=O)[C@H](CCC(N)=O)NC(=O)[C@H](CC(C)C)NC(=O)[C@H](CC(C)C)NC(=O)CNC(=O)[C@@H](NC(=O)[C@@H]1CCCN1C(=O)[C@@H](NC(=O)[C@H](CC(=O)O)NC(=O)[C@H](CC(C)C)NC(=O)[C@H](CO)NC(=O)[C@H](CC(C)C)NC(=O)[C@@H](NC(=O)[C@@H](NC)[C@@H](C)CC)C(C)C)C(C)C)[C@@H](C)CC)[C@@H](C)CC)[C@@H](C)O)[C@@H](C)CC)C(=O)N[C@@H](C)C(=O)N[C@@H](CCC(=O)O)C(=O)N[C@H](C(N)=O)C(C)C` [SEQ ID NO: 215] (H-[NMeI]VLSLDVPIGLLQILLSQARARAAREQAK([AEEA-AEEA-γGlu-γGlu-C20 diacid])TN[Aib]EI[Nle]AEV-NH2): in experiment [1] (Fig. 11A), the “inotropic effects (contractility)” value is “positive inotropic effects”. Besides, the coronary blood flow result in experiment [1] (Fig. 11B) is on record as “increasing”. Moreover, the “O2 consumption (rate pressure product)” value in experiment [1] (Figs. 11C and 11D) is listed as “increasing”.
Take `CC[C@H](C)[C@H](N)C(=O)N[C@H](C(=O)N[C@@H](CC(C)C)C(=O)N[C@@H](CO)C(=O)N[C@@H](CC(C)C)C(=O)N[C@@H](CC(=O)O)C(=O)N[C@H](C(=O)N1CCC[C@H]1C(=O)N[C@H](C(=O)NCC(=O)N[C@@H](CC(C)C)C(=O)N[C@@H](CC(C)C)C(=O)N[C@@H](CCC(N)=O)C(=O)N[C@H](C(=O)N[C@@H](CC(C)C)C(=O)N[C@@H](CC(C)C)C(=O)N[C@@H](CCC(=O)O)C(=O)N[C@@H](CCC(N)=O)C(=O)N[C@@H](C)C(=O)N[C@@H](CCCNC(=N)N)C(=O)N[C@@H](C)C(=O)N[C@@H](CCCNC(=N)N)C(=O)N[C@@H](C)C(=O)N[C@@H](C)C(=O)N[C@@H](CCCNC(=N)N)C(=O)N[C@@H](CCC(=O)O)C(=O)N[C@@H](CCC(N)=O)C(=O)N[C@@H](C)C(=O)N[C@@H](CCCCNC(=O)COCCOCCNC(=O)COCCOCCNC(=O)CC[C@H](NC(=O)CC[C@H](NC(=O)CCCCCCCCCCCCCCCCCCC(=O)O)C(=O)O)C(=O)O)C(=O)N[C@H](C(=O)N[C@@H](CC(N)=O)C(=O)N[C@@H](C)C(=O)N[C@@H](CCC(=O)O)C(=O)N[C@H](C(=O)N[C@@H](CC(C)C)C(=O)N[C@@H](C)C(=O)N[C@@H](CCC(=O)O)C(=O)N[C@H](C(N)=O)C(C)C)[C@@H](C)CC)[C@@H](C)O)[C@@H](C)CC)[C@@H](C)CC)C(C)C)C(C)C` [SEQ ID NO: 3] (H-IVLSLDVPIGLLQILLEQARARAAREQAK([AEEA-AEEA-γGlu-γGlu-C20 diacid])TNAEILAEV-NH2): in experiment [2] (30 nmol/kg, ± SEM), the “Body weight at termination” value came to 550.1 ± 10.6 g and the Left soleus mass amounted to 274.9 ± 9.9 mg. Further, in experiment [2] (100 nmol/kg, ± SEM), the “Body weight at termination” value is listed as 551.6 ± 6.7 g and the Left soleus mass is 275.2 ± 6.8 mg. In experiment [2] (setting [3]), the CO was 129.0 ± 5.1 mL/min, the “EF B-mode” value came to 45.52 ± 1.2 %, the “EF M-mode” value is listed as 46.42 ± 1.2 % and the FS is given as 20.63 ± 0.5 %. Moreover, in experiment [2] (setting [3]), the IVRT is reported as 21.81 ± 0.5 ms, the LVIDd stood at 10.86 ± 0.2 mm, the LVIDs was 8.63 ± 0.2 mm and the LVPWd stood at 1.84 ± 0.04 mm. In experiment [2] (setting [3]), the LVPWs came to 2.94 ± 0.05 mm and the SV turned out to be 0.41 ± 0.01 mL. Further, in experiment [2] (setting [4]), the CO turned out to be 125.4 ± 3.8 mL/min, the “EF B-mode” value came out at 45.55 ± 0.7 %, the “EF M-mode” value stood at 46.22 ± 0.7 % and the FS stood at 20.46 ± 0.4 %. In experiment [2] (setting [4]), this molecule displayed an IVRT of 20.87 ± 0.3 ms, an LVIDd of 10.94 ± 0.1 mm, an LVIDs of 8.71 ± 0.1 mm and an LVPWd of 1.63 ± 0.1 mm. Moreover, in experiment [2] (setting [4]), the LVPWs is listed as 2.73 ± 0.05 mm and the SV was found to be 0.40 ± 0.02 mL. In experiment [2] (setting [5]), the cardiac output result is “significant improvements”, the ejection fraction entry is given as “significant improvements”, the fractional shortening entry is on record as “significant improvements” and the stroke volume entry was “significant improvements”. Also, in experiment [2] (30 nmol/kg), the Heart rate amounted to 348.8 ± 6.7 bpm and the Mean blood pressure was determined as 109.9 ± 4.0 mmHg. In experiment [2] (100 nmol/kg), the Heart rate is 353.2 ± 9.1 bpm and the Mean blood pressure amounted to 112.6 ± 4.3 mmHg. Further, in experiment [2] (at termination), the muscle mass entry is on record as “significant increase”. The “Body weight at termination” value in experiment [2] (compared to MI-Vehicle) is given as “weighed significantly more”.
